Reference: patent US4188398A, “Method for treating epilepsy” (priority 1978, dated 1980)

Tests used:
animal or person = assay: animal or person
Procedure: The general effect of the proposed preparation was tested on white mice, rats and rabbits.

[1] = Daily administration for eight weeks, rabbits (chronic toxicity); assay type: in vivo; settings: 200 mg/kg intraperitoneally once a day
Procedure: The effects of daily administrations of the proposed anticonvulsant, carried out over prolonged periods of time, were studied on rabbits and rats.
A 2-percent colloidal solution of the proposed preparation was introduced intraperitoneally in doses of 200 mg/kg to five rabbits. This was done once a day for eight weeks. The same amounts of a colloidal solution of a carboxymethyl cellulose were administered intraperitoneally to three control rabbits.
Every day the animals' weight and body temperature were measured, and their general state was assessed. Once a week, a general blood analysis was made, the urine was analyzed for protein, blood and biliary pigments. Upon the end of the experiment, the animals were killed (the rabbits were destroyed by air embolism; the rats were decapitated). The liver, heart, kidneys, spleen, lungs and different parts of the small intestine and stomach of the freshly killed animals were taken for pathomorphological investigation.

Bacillus coli = assay type: cell-based
[2] = Neurotoxicity: rightening, gait, stance, muscle tone and equilibrium tests; assay type: in vivo; settings: P = 0.05
Procedure: The neurotoxicity levels were determined by conducting rightening, gait, stance, muscle tone and equilibrium tests.

[3] = General effect on behaviour of rabbits; assay type: in vivo; settings: 500 to 600 mg/kg
Arecoline tremor test = assay: Arecoline tremor test; set-up: species or system mice and rats; settings: in vivo
[4] = Other pharmacological properties (vegetative nervous system, blood pressure, breathing, neuromuscular conduction); assay type: in vivo; settings: intraperitoneally or per os

Procedure for Corazol convulsion test: The anticonvulsant action of the proposed preparation was tested on mice weighing 19 to 25 g and rats weighing 120 to 150 g by conducting maximum electroshock, corazol, strychnine, camphor, nicotine and arecoline tests.

SMILES: CC(C)Oc1ccc(C2CC(=O)NC2=O)cc1 (stereo not drawn) [proposed preparation, α-/para-isopropoxyphenyl/succinimide]
- minimal effective dose (animal or person; Mus musculus, ip, read-out: least dose to produce a noticeable effect on the animals' behavior): 200 mg/kg
- effect on general state of the animals per os versus intraperitoneal (animal or person; per os, animals (mice, rats, rabbits)): not as marked as in the case of intraperitoneal administration
- dose inducing lying position and sleep (animal or person; white mice, intraperitoneal): more than 1,000 milligrams per kilogram of weight
- organ changes, macroscopic and microscopic histochemical investigation [1]: no changes were observed
- weight, body temperature, general state, blood and urine composition [1]: no changes were registered in the weight, body temperature and general state of the animals
- mutagenous effect (Bacillus coli): no mutagenous effect
- TD50 (mean neurotoxic dose) ([2]; listed as Preparation according to invention): 720(588 to 883) mg/kg
- TD50 ([2]; in vivo, read-out: TD50 (mean neurotoxic dose)): 720 mg/kg
- effect on behaviour of rabbits [3]: no conspicuous changes in the behaviour
- ED50 (Corazol convulsion test; Mus musculus, read-out: ED50 (corazol)): 86 mg/kg
- protection index I=TD50/ED50, Corazol (Corazol convulsion test; corazol): 8.38
- protection index PI (mean lethal dose / mean effective dose), Corazol (Corazol convulsion test; corazol): 25
- effect on arecoline tremor (Arecoline tremor test): does not hinder the development of arecoline tremor
- blood pressure, breathing and neuromuscular conduction [4]: no changes are observed in the blood pressure, breathing and neuromuscular conduction
- effect on the vegetative nervous system [4]: no effect upon the vegetative nervous system
